This is an account of results in patent US9732075B2, “Benzimidazole-proline derivatives” (IDORSIA PHARMACEUTICALS LTD, priority 2012, dated 2017).

The target in assay [1] is human orexin-1 receptor (Homo sapiens (Human), UniProt O43613). Briefly: In vitro assay: intracellular calcium measurements (FLIPR), antagonistic activity. In kind it is cell-based. The settings on record: CHO cells expressing human orexin-1 receptor, orexin-A agonist, geometric mean, read-out: IC50 Ox1. The method, boiled down:
(§1)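 Dye-loaded CHO cells expressing either human orexin receptor are exposed to test antagonist for 120 min, then stimulated with orexin-A at 3 nM.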
For orientation: Calcium flux is commonly read through the fluorescence of an indicator in the cells.

Assay [2] has as its target human orexin-2 receptor (Homo sapiens (Human), UniProt O43614). The assay is described as above. The settings on record: CHO cells expressing human orexin-2 receptor, orexin-A agonist, geometric mean, read-out: IC50 Ox2. In kind it is cell-based. The method, boiled down:
as §1

Chain of human orexin-2 receptor (O43614 whole entry): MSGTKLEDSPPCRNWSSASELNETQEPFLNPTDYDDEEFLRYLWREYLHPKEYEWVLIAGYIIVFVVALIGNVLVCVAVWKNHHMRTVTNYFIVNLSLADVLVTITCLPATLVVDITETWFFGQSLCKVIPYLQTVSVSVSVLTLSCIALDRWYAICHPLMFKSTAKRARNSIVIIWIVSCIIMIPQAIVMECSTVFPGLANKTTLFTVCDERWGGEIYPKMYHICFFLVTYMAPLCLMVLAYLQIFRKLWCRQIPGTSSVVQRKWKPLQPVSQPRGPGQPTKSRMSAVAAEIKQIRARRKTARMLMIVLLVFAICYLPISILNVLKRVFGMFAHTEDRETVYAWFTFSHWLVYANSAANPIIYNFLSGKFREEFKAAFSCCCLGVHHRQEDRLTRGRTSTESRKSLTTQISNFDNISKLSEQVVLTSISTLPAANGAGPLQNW
Chain of human orexin-1 receptor (O43613 whole entry): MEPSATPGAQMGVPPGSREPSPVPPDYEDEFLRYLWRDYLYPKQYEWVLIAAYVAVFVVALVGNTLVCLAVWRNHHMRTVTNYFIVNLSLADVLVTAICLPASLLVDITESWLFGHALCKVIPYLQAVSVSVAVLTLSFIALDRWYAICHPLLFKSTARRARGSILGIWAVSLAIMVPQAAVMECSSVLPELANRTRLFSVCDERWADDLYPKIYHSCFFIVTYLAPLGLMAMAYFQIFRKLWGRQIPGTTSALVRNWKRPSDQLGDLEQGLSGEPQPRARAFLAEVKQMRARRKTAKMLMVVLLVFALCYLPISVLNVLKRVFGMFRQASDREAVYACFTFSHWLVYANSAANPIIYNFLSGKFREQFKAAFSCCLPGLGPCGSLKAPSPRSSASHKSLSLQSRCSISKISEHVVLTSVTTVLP

Consider `C=C1C[C@@H](c2nc3c(Cl)cccc3[nH]2)N(C(=O)c2nc(C)sc2-c2ccc(C)c(C)c2)C1` [Ex. 6.51], for which the IC50 is 8 nM in assay [1] and 3 nM in assay [2].

With `COCCn1c([C@]2(C)CCCN2C(=O)c2cc(C)ccc2-n2nccn2)nc2cc(OC)c(OC)cc21` [Ex. 7.46], the half-maximal inhibitory concentration (IC50) is 78 nM in assay [1] and 77 nM in assay [2].

Turning to `Cc1c(Cl)ccc2[nH]c([C@]3(C)CCCN3C(=O)c3c(F)cccc3-n3nccn3)nc12` [Ex. 5.48], the IC50 in assay [1] worked out at 12 nM; in assay [2], 25 nM.

On to `C=C1C[C@@H](c2nc3cc(Cl)c(C(F)(F)F)cc3[nH]2)N(C(=O)c2c(-n3nccn3)ccc(C)c2F)C1` [Ex. 6.180], for which the results for the IC50 in assay [1] and in assay [2] were 5 nM and 4 nM, respectively.

Consider `Cc1ccc(-n2nccn2)c(C(=O)N2CCC[C@@]2(C)c2nc3cc(Br)cc(C)c3n2C)c1` [Example 7.4, (S)-(2-(5-bromo-1,7-dimethyl-1H-benzo[d]imidazol-2-yl)-2-methylpyrrolidin-1-yl)(5-methyl-2-(2H-1,2,3-triazol-2-yl)phenyl)methanone], for which the figures for the half-inhibitory concentration (IC50) in assay [1] and in assay [2] were 7 nM and 6 nM, respectively.

Turning to `COc1ccc(-c2sc(C)nc2C(=O)N2C[C@H](OC)C[C@H]2c2nc3ccc(Cl)c(C)c3[nH]2)cc1` [Ex. 3.37], the IC50 in assay [1] and in assay [2] was 8 nM throughout.

As for `Cc1ccc(-n2nccn2)c(C(=O)N2CCC[C@@]2(C)c2nc3cc(F)c(Br)cc3[nH]2)n1` [Ex. 5.131], the IC50 in assay [1] worked out at 15 nM; in assay [2], 178 nM.

With `Cc1nc(C(=O)N2CC[C@H](C)[C@H]2c2nc3c(F)c(F)ccc3[nH]2)c(-c2cccc(Cl)c2)s1` [Ex. 4.23], the IC50 in assay [1] was 9 nM; in assay [2] it was 1940 nM.

`Cc1nc(C(=O)N2CCC[C@@]2(C)c2nc3c(C)cccc3[nH]2)c(-c2cccc(Cl)c2)s1` [Ex. 5.4]: the results for the half-maximal inhibitory concentration (IC50) in assay [1] and in assay [2] were 10 nM and 6 nM, respectively.

For the compound `Cc1c(Cl)ccc2[nH]c([C@]3(C)CCCN3C(=O)c3nc(-c4cccc(Cl)c4)sc3-c3ccc(F)cc3)nc12` [Ex. 5.257], the IC50 stood at 13 nM in assay [1] and 329 nM in assay [2].

Take `Cc1nc(C(=O)N2CCCC2c2nc3c(Br)cc(F)cc3[nH]2)c(-c2cccc(Cl)c2)s1` (centres unmarked) [Ex. 1.114]: the IC50 turned out to be 30 nM in assay [1] and 74 nM in assay [2].

On to `COc1cccc(-c2sc(C)nc2C(=O)N2CCC[C@H]2c2nc3ccc(SC)cc3[nH]2)c1` [Ex. 1.37], for which the concentration for half-maximal inhibition (IC50) in assay [1] turned out to be 154 nM; in assay [2] it was 62 nM.

As to `C[C@@]1(c2nc3cc(C(F)(F)F)ccc3[nH]2)CCCN1C(=O)c1c(F)cccc1-n1nccn1` [Ex. 5.164], the IC50 in assay [1] came out at 104 nM; in assay [2] it was 419 nM.

`C[C@@]1(c2nc3cc(C(F)(F)F)ccc3[nH]2)CCCN1C(=O)c1ccccc1-n1cccn1` [Ex. 5.176]: the results for the half-inhibitory concentration (IC50) in assay [1] and in assay [2] were 389 nM and 1070 nM, respectively.

Consider `COCCn1c([C@]2(C)CCCN2C(=O)c2cc(C)ccc2-c2ccc(C)cc2)nc2cc(C)c(C)cc21` [Ex. 7.41], for which the concentration for half-maximal inhibition (IC50) in assay [1] is 44 nM; in assay [2] it was 106 nM.

As to `C=C1C[C@@H](c2nc3cc(OC)ccc3[nH]2)N(C(=O)c2ccccc2-c2cccc(C)c2)C1` [Ex. 6.14], the values for the half-inhibitory concentration (IC50) in assay [1] and in assay [2] were 87 nM and 12 nM, respectively.

For `COc1cc(C(=O)N2CCC[C@H]2c2nc3ccc(SC)cc3[nH]2)c(-n2nccn2)cc1OC` [Ex. 1.155], the IC50 in assay [1] came out at 36 nM; in assay [2], 16 nM.

For the compound `COc1cc2nc([C@]3(C)CCCN3C(=O)c3ccccc3-n3nccn3)[nH]c2cc1OC` [Ex. 5.73], the IC50 was 98 nM in assay [1] and 57 nM in assay [2].

Consider `C=C1C[C@@H](c2nc3cc(C)c(C)cc3[nH]2)N(C(=O)c2ccccc2-n2nccn2)C1` [Ex. 6.194], for which the results for the concentration for half-maximal inhibition (IC50) in assay [1] and in assay [2] were 51 nM and 5 nM, respectively.

In the case of `C=C1C[C@@H](c2nc3cc(Cl)c(C(F)(F)F)cc3[nH]2)N(C(=O)c2c(C)cccc2-n2nccn2)C1` [Ex. 6.183], the IC50 in assay [1] was 127 nM; in assay [2] it was 21 nM.

As to `Cc1nc(C(=O)N2CCC[C@@]2(C)c2nc3c(F)c(F)ccc3[nH]2)c(-c2cccc(F)c2)s1` [Ex. 5.212], the IC50 in assay [1] came out at 26 nM; in assay [2], 239 nM.

As for `C[C@@]1(c2nc3c(F)c(F)ccc3[nH]2)CCCN1C(=O)c1cc(Cl)ccc1-n1nccn1` [Ex. 5.200], the IC50 is 115 nM in assay [1] and 517 nM in assay [2].

With `CSc1cccc2nc([C@@H]3CCCN3C(=O)c3nc(C4CC4)sc3-c3ccc(F)cc3)[nH]c12` [Ex. 1.70], the IC50 in assay [1] and in assay [2] was 26 nM each time.

As for `CSc1cccc2nc([C@@H]3CCCN3C(=O)c3cncnc3-c3cc(Cl)cc(Cl)c3)[nH]c12` [Ex. 1.89], the IC50 in assay [1] is 39 nM; in assay [2] it was 180 nM.

`Cc1nc(C(=O)N2CC[C@H](C)[C@H]2c2nc3cc(C)c(C)cc3[nH]2)c(-c2cc(F)cc(F)c2)s1` [Ex. 4.89]: the figures for the concentration for half-maximal inhibition (IC50) in assay [1] and in assay [2] were 3 nM and 2170 nM, respectively.

As for `Cc1ccccc1-c1nc(C(=O)N2CCC[C@@]2(C)c2nc3c(C)c(Cl)ccc3[nH]2)c(-c2ccc(F)cc2)s1` [Ex. 5.228], the half-inhibitory concentration (IC50) in assay [1] amounted to 56 nM; in assay [2], 2030 nM.

In the case of `Cc1ccc(-n2nccn2)c(C(=O)N2CCC[C@@]2(C)c2nc3c(Br)cccc3[nH]2)c1` [Ex. 5.18], the IC50 was 23 nM in assay [1] and 84 nM in assay [2].

Turning to `CSc1ccc2nc([C@@H]3CCCN3C(=O)c3nc(C)sc3-c3cccc(C(F)(F)F)c3)[nH]c2c1` [Ex. 1.38], the IC50 stood at 360 nM in assay [1] and 110 nM in assay [2].

`COc1cc2nc([C@@H]3[C@@H](C)CCN3C(=O)c3c(-n4nccn4)ccc(C)c3F)[nH]c2cc1OC` [Ex. 4.44]: the values for the concentration for half-maximal inhibition (IC50) in assay [1] and in assay [2] were 38 nM and 246 nM, respectively.

Regarding `Cc1nc(C(=O)N2CCCC2c2nc3c(F)cccc3[nH]2)c(-c2cccc(Cl)c2)s1` (centres unmarked) [Ex. 1.104], the 50% inhibitory concentration (IC50) in assay [1] came out at 657 nM; in assay [2], 769 nM.

As for `Cc1ccc(-c2ncccn2)c(C(=O)N2CC[C@H](C)[C@H]2c2nc3ccc(Cl)c(C)c3[nH]2)c1` [Ex. 4.181], the half-maximal inhibitory concentration (IC50) in assay [1] stood at 3 nM; in assay [2], 230 nM.

`C=C1C[C@@H](c2nc3ccc(OC)cc3[nH]2)N(C(=O)c2nc(C)sc2-c2ccc(C)c(C)c2)C1` [Ex. 6.46]: the half-inhibitory concentration (IC50) in assay [1] came to 30 nM; in assay [2], 4 nM.

As for `COc1ccc2nc([C@@H]3CCCN3C(=O)c3ccccc3-n3nccn3)[nH]c2c1` [Ex. 1.27], the IC50 in assay [1] is 1040 nM; in assay [2] it was 35 nM.

Consider `Cc1c(Cl)ccc2nc([C@]3(C)CCCN3C(=O)c3cc(F)ccc3-c3ccccn3)[nH]c12` [Ex. 5.219], for which the IC50 in assay [1] was 19 nM; in assay [2], 72 nM.

Turning to `COc1ccc(-n2nccn2)c(C(=O)N2C[C@H](OC)C[C@H]2c2nc3ccc(Cl)c(C)c3[nH]2)c1` [Ex. 3.12], the half-inhibitory concentration (IC50) was determined as 13 nM in assay [1] and 1 nM in assay [2].

For `Cc1ccc(-n2nccn2)c(C(=O)N2CCC[C@@]2(C)c2nc3cc(C(F)(F)F)c(F)cc3[nH]2)c1` [Ex. 5.22], the IC50 was found to be 7 nM in assay [1] and 86 nM in assay [2].

Take `Cc1ccc(-c2ccccc2)c(C(=O)N2CCC[C@@]2(C)c2nc3cc(OC(F)(F)F)ccc3[nH]2)c1` [Ex. 5.236]: the IC50 amounted to 26 nM in assay [1] and 173 nM in assay [2].

For the compound `C=C1C[C@@H](c2nc3cc(Cl)c(C(F)(F)F)cc3[nH]2)N(C(=O)c2nc(C)ccc2-n2cccn2)C1` [Ex. 6.189], the values for the IC50 in assay [1] and in assay [2] were 47 nM and 25 nM, respectively.

In the case of `Cc1ccc(-c2cccc(F)c2)c(C(=O)N2CCC[C@@]2(C)c2nc3cc(C)c(C)cc3n2CC2CC2)c1` [Ex. 7.34], the 50% inhibitory concentration (IC50) is 16 nM in assay [1] and 84 nM in assay [2].

With `C=C1CN(C(=O)c2cc(C)c(C)cc2-n2nccn2)C(C)(c2nc3cc(OC)ccc3[nH]2)C1` (centres unmarked) [Ex. 6.159], the results for the IC50 in assay [1] and in assay [2] were 11 nM and 10 nM, respectively.

Consider `CO[C@H]1CN(C(=O)c2nc(C)sc2-c2ccccc2)C(C)(c2nc3c(C)cccc3[nH]2)C1` (some centres unmarked) [Ex. 3.29], for which the values for the concentration for half-maximal inhibition (IC50) in assay [1] and in assay [2] were 28 nM and 20 nM, respectively.

For the compound `CO[C@@H]1C[C@@H](c2nc3ccc(Cl)c(C)c3[nH]2)N(C(=O)c2nc(C)sc2-c2ccc(C)c(C)c2)C1` [Ex. 3.34], the IC50 turned out to be 0.9 nM in assay [1] and 8 nM in assay [2].

As for `CSc1ccc2[nH]c([C@@H]3CCCN3C(=O)c3nc(C)ccc3-n3cccn3)nc2c1` [Ex. 1.178], the half-maximal inhibitory concentration (IC50) in assay [1] turned out to be 2680 nM; in assay [2] it was 96 nM.

For `C=C1C[C@@H](c2nc3cc(OC)ccc3[nH]2)N(C(=O)c2nc(C3CC3)sc2-c2cccc(OC)c2)C1` [Ex. 6.31], the IC50 was 41 nM in assay [1] and 22 nM in assay [2].

On to `COc1ccc(-c2ccc(C(F)(F)F)cc2)c(C(=O)N2CCC[C@@]2(C)c2nc3ccc(Cl)c(C)c3[nH]2)c1F` [Ex. 5.305], for which the 50% inhibitory concentration (IC50) in assay [1] is 35 nM; in assay [2], 41 nM.

`C=C1C[C@@H](c2nc3cc(Cl)c(C(F)(F)F)cc3[nH]2)N(C(=O)c2c(-n3nccn3)ccc(OC)c2F)C1` [Ex. 6.179]: the results for the half-inhibitory concentration (IC50) in assay [1] and in assay [2] were 6 nM and 7 nM, respectively.

Consider `Cc1nc(C(=O)N2CC[C@H](C)[C@H]2c2nc3cc(C#N)ccc3[nH]2)c(-c2cccc(Cl)c2)s1` [Ex. 4.8], for which the IC50 in assay [1] turned out to be 68 nM; in assay [2] it was 9930 nM.

With `C=C1C[C@@H](c2nc3ccc(OC)cc3[nH]2)N(C(=O)c2nc(C)sc2-c2ccc(F)cc2)C1` [Example 6.1, (S)-(5-(4-fluorophenyl)-2-methylthiazol-4-yl)(2-(6-methoxy-1H-benzo[d]imidazol-2-yl)-4-methylenepyrrolidin-1-yl)methanone], the results for the concentration for half-maximal inhibition (IC50) in assay [1] and in assay [2] were 367 nM and 33 nM, respectively.

Take `Cc1ccc(-c2cccc(OC(F)(F)F)c2)c(C(=O)N2CCC[C@@]2(C)c2nc3cc(C(F)(F)F)ccc3[nH]2)c1` [Ex. 5.184]: the IC50 was 300 nM in assay [1] and 413 nM in assay [2].

What is called IC50 is the concentration that inhibits the measured activity by half.
